Among the data in PubChem BioAssay AID248 (DTP/NCI, 2004) are T/C values, retold here.

Several values for one entry are separate records, joined by “and”; a condition that tells them apart may be missing. Equal entries are not always repeated. Inconclusive results and toxic doses are left out.

For the assay, the system named is L1210 leukemia ip in BDF1 mice, survival T/C. Kind of assay: NCI In Vivo Anticancer Drug Screen. Data for tumor model L1210 Leukemia (intraperitoneal) in B6D2F1 (BDF1) mice. Particulars: endpoint: mean survival time, higher = longer survival. Summed up:
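Antitumor effect is assessed in tumor-bearing animals. Survival in the compound arm is compared with a vehicle-dosed control arm and expressed as their quotient.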

The mark [1] stands for this setting: dose: 100.0 mg/kg/injection, schedule: Q01DX001 (ip), vehicle: saline with Tween-80.
Where [2] appears, read: dose: 200.0 mg/kg/injection, schedule: Q01DX001 (ip), vehicle: saline with Tween-80.
Setting [3] is: dose: 400.0 mg/kg/injection, schedule: Q01DX001 (ip), vehicle: saline with Tween-80.
Where [4] appears, read: dose: 100.0 mg/kg/injection, schedule: Q01DX009 (ip), vehicle: Klucel (hydroxypropylcellulose) (HPC).
Where [5] appears, read: dose: 200.0 mg/kg/injection, schedule: Q01DX009 (ip), vehicle: Klucel (hydroxypropylcellulose) (HPC).
[6] abbreviates: dose: 400.0 mg/kg/injection, schedule: Q01DX009 (ip), vehicle: Klucel (hydroxypropylcellulose) (HPC).
Setting [7] is: dose: 100.0 mg/kg/injection, schedule: Q04DX003 (ip), vehicle: Klucel (hydroxypropylcellulose) (HPC).
The mark [8] stands for this setting: dose: 200.0 mg/kg/injection, schedule: Q04DX003 (ip), vehicle: Klucel (hydroxypropylcellulose) (HPC).
Setting [9] is: dose: 100.0 mg/kg/injection, schedule: Q01DX001 (ip), vehicle: other.
Where [10] appears, read: dose: 200.0 mg/kg/injection, schedule: Q01DX001 (ip), vehicle: other.
The mark [11] stands for this setting: dose: 400.0 mg/kg/injection, schedule: Q01DX001 (ip), vehicle: other.

In the case of `OCc1cscc1-c1cscc1CO`, the T/C by setting is: under setting [1], 97 % of control; under setting [2], 111 % of control; under setting [3], 93 % of control.
Take `NC(N)=N/N=C/c1cccc(F)c1`: the T/C is 111 % of control (dose: 15.0 mg/kg/injection, schedule: Q01DX Z (ip), vehicle: saline); 87 % of control (dose: 15.0 mg/kg/injection, schedule: Q01DX Z (oral), vehicle: saline); 90 % of control (dose: 30.0 mg/kg/injection, schedule: Q01DX Z (ip), vehicle: saline); 90 % of control (dose: 30.0 mg/kg/injection, schedule: Q01DX Z (oral), vehicle: saline).
For the compound `CCOC(=O)COc1ccc(/C=C/c2ccnc3ccccc23)cc1`, the T/C was 100 % of control under setting [4], 106 % of control under setting [5] and 94 % of control under setting [6].
As to `N#C[Se]C[Se]C#N`, the T/C was 95 % of control (dose: 1.56 mg/kg/injection, schedule: Q01DX001 (ip), vehicle: saline); 100 % of control (dose: 3.13 mg/kg/injection, schedule: Q01DX001 (ip), vehicle: saline); 100 % of control (dose: 6.25 mg/kg/injection, schedule: Q01DX001 (ip), vehicle: saline).
For the compound `N#CC(O)c1ccccc1` (configuration not stated), the T/C was 101 % of control (dose: 2.5 mg/kg/injection, schedule: Q01DX009 (ip), vehicle: acetone); 95 % of control (dose: 5.0 mg/kg/injection, schedule: Q01DX001 (ip), vehicle: carboxymethylcellulose (CMC)); 102 % of control (dose: 5.0 mg/kg/injection, schedule: Q01DX009 (ip), vehicle: acetone); 91 % of control (dose: 10.0 mg/kg/injection, schedule: Q01DX001 (ip), vehicle: carboxymethylcellulose (CMC)); 104 % of control (dose: 10.0 mg/kg/injection, schedule: Q01DX009 (ip), vehicle: acetone).
With `CCCCCCCCCCCCCCCCC1CCCC2(CCCC2)C1` (configuration not stated), the T/C reads like this: under setting [1], 103 % of control; under setting [2], 92 % of control; under setting [3], 101 % of control.
As for `Oc1ccc(Br)cc1-c1nc2cc(Cl)c(Cl)cc2nc1-c1cc(Br)ccc1O`, the T/C reads like this: under setting [4], 94 % of control; under setting [7], 107 % of control; under setting [5], 94 % of control; under setting [8], 101 % of control; under setting [6], 96 % of control; (dose: 400.0 mg/kg/injection, schedule: Q04DX003 (ip), vehicle: Klucel (hydroxypropylcellulose) (HPC)) 95 % of control.
`Cc1cccc(Cl)c1NC(=O)Cn1cccc1`: the T/C is 95 % of control (dose: 25.0 mg/kg/injection, schedule: Q01DX009 (ip), vehicle: Klucel (hydroxypropylcellulose) (HPC)); 95 % of control (dose: 50.0 mg/kg/injection, schedule: Q01DX009 (ip), vehicle: Klucel (hydroxypropylcellulose) (HPC)); 94 % of control (dose: 75.0 mg/kg/injection, schedule: Q01DX009 (ip), vehicle: Klucel (hydroxypropylcellulose) (HPC)); 100 % of control under setting [7]; 93 % of control under setting [8].
As for `COc1cc(F)cc([N+](=O)[O-])c1`, the T/C is 95 % of control (dose: 100.0 mg/kg/injection, schedule: Q01DX001 (ip), vehicle: carboxymethylcellulose (CMC)); 97 % of control (dose: 200.0 mg/kg/injection, schedule: Q01DX001 (ip), vehicle: carboxymethylcellulose (CMC)); 97 % of control (dose: 400.0 mg/kg/injection, schedule: Q01DX001 (ip), vehicle: carboxymethylcellulose (CMC)).
On to `CC1c2c(c3ccccc3n2C)CC[N+]1(C)C` (configuration not stated), for which the T/C is 109 % of control and 88 % of control (dose: 12.5 mg/kg/injection, schedule: Q01DX009 (ip), vehicle: carboxymethylcellulose (CMC)); 115 % of control and 86 % of control (dose: 25.0 mg/kg/injection, schedule: Q01DX009 (ip), vehicle: carboxymethylcellulose (CMC)); 102 % of control and 103 % of control (dose: 25.0 mg/kg/injection, schedule: Q04DX002 (ip), vehicle: carboxymethylcellulose (CMC)); 102 % of control (dose: 25.0 mg/kg/injection, schedule: Q04DX003 (ip), vehicle: carboxymethylcellulose (CMC)); 94 % of control and 88 % of control (dose: 50.0 mg/kg/injection, schedule: Q01DX009 (ip), vehicle: carboxymethylcellulose (CMC)); 94 % of control and 99 % of control (dose: 50.0 mg/kg/injection, schedule: Q04DX002 (ip), vehicle: carboxymethylcellulose (CMC)). The T/C was 105 % of control (dose: 50.0 mg/kg/injection, schedule: Q04DX003 (ip), vehicle: carboxymethylcellulose (CMC)) and 116 % of control (dose: 100.0 mg/kg/injection, schedule: Q04DX003 (ip), vehicle: carboxymethylcellulose (CMC)).
As for `N#CC1=C(C#N)C(=O)C(Cl)=C(Cl)C1=O`, the T/C is 98 % of control (dose: 6.25 mg/kg/injection, schedule: Q01DX009 (ip), vehicle: saline); 102 % of control (dose: 12.5 mg/kg/injection, schedule: Q01DX009 (ip), vehicle: saline); 104 % of control (dose: 12.5 mg/kg/injection, schedule: Q04DX003 (ip), vehicle: saline sonified); 93 % of control (dose: 25.0 mg/kg/injection, schedule: Q04DX003 (ip), vehicle: saline sonified).
For `CCCCC1C2CCCCC2CC2CCCCC21` (configuration not stated), the T/C by setting is: under setting [1], 98 % of control; under setting [2], 101 % of control; under setting [3], 98 % of control.
In the case of `CCCCCCCCCCCCOC(=O)C(Cl)(Cl)Cl`, the T/C is 93 % of control under setting [9]; 102 % of control (dose: 100.0 mg/kg/injection, schedule: Q04DX003 (ip), vehicle: other); 96 % of control under setting [10]; 96 % of control (dose: 200.0 mg/kg/injection, schedule: Q04DX003 (ip), vehicle: other); 93 % of control under setting [11]; 97 % of control (dose: 400.0 mg/kg/injection, schedule: Q04DX003 (ip), vehicle: other).
For `CCCCN(C)N=Nc1ccc([N+](=O)[O-])cc1C(N)=O`, the T/C by setting is: under setting [9], 100 % of control; (dose: 100.0 mg/kg/injection, schedule: Q04DX003 (ip), vehicle: saline with Tween-80) 110 % of control; under setting [10], 105 % of control; (dose: 200.0 mg/kg/injection, schedule: Q01DX009 (ip), vehicle: saline with Tween-80) 122 % of control; (dose: 200.0 mg/kg/injection, schedule: Q04DX003 (ip), vehicle: saline with Tween-80) 109 % of control; (dose: 266.0 mg/kg/injection, schedule: Q01DX009 (ip), vehicle: saline with Tween-80) 160 % of control. Besides, the T/C was 110 % of control under setting [11]; 165 % of control and 170 % of control (dose: 400.0 mg/kg/injection, schedule: Q01DX009 (ip), vehicle: saline with Tween-80); 115 % of control (dose: 400.0 mg/kg/injection, schedule: Q04DX003 (ip), vehicle: saline with Tween-80); 200 % of control (dose: 600.0 mg/kg/injection, schedule: Q01DX009 (ip), vehicle: saline with Tween-80).
For `CC1CCC(C(O)(C(=O)O)C2CCC(C)CC2)CC1` (configuration not stated), the T/C was 104 % of control (dose: 75.0 mg/kg/injection, schedule: Q01DX001 (ip), vehicle: other) and 104 % of control (dose: 150.0 mg/kg/injection, schedule: Q01DX001 (ip), vehicle: other).
Take `CC(=O)NN=C(C)C`: the T/C is, setting by setting: (dose: 25.0 mg/kg/injection, schedule: Q01DX009 (ip), vehicle: saline) 102 % of control; (dose: 50.0 mg/kg/injection, schedule: Q01DX009 (ip), vehicle: saline) 111 % of control; (dose: 50.0 mg/kg/injection, schedule: Q04DX003 (ip), vehicle: saline) 99 % of control; (dose: 100.0 mg/kg/injection, schedule: Q04DX003 (ip), vehicle: saline) 99 % of control; (dose: 200.0 mg/kg/injection, schedule: Q04DX003 (ip), vehicle: saline) 99 % of control.
Consider `O=CC1=C(Cl)c2ccccc2CC1`, for which, for the setting “dose: 12.5 mg/kg/injection, schedule: Q04DX003 (ip), vehicle: acetone”, the T/C is 98 % of control.
In the case of `CCOc1ccc(/C=N/NC(=O)CCCCCCCCC(=O)N/N=C/c2ccc(OCC)c(OC)c2)cc1OC`, the T/C was 95 % of control under setting [4], 88 % of control under setting [5] and 97 % of control under setting [6].
